Results from article PMC12613848, “First in human phase 1 study of DT2216, a selective BCL-xL degrader, in patients with relapsed/refractory solid malignancies” (Journal of Hematology & Oncology, 2025).
Where “and” joins values, the source holds several entries; their conditions need not be identical. Equal values may be shown once. Entries after “also recorded” stand apart in the source; their conditions may differ.

Legend:
BCL-XL [1] = molecular target: T1, BCL-XL (Homo sapiens, UniProt Q07817); assay: BCL-XL levels in peripheral leukocytes of patients by western blotting; type: in vivo; settings: 0.4 mg/kg IV, 4 patients, after C1D1
T1 construct: endogenous in cells; host or cells: peripheral leukocytes (WBC) of trial patients
T1 sequence (Q07817 whole entry): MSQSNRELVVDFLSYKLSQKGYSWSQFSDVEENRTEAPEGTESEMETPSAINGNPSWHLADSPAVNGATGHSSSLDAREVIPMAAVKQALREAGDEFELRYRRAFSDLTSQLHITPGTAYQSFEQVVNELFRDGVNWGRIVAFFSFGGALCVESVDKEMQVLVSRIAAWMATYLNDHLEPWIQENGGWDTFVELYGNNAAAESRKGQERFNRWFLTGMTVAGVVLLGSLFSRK
Method: Methods A dose escalation study using a 3 + 3 design with doses ranging from 0.04 to 0.4 mg/kg IV twice weekly (BIW) was performed. Eligible subjects had solid tumors of any histology that had progressed on standard treatment and had measurable tumor by RECIST v1.1. Tumor assessment was performed at 8-week intervals. BCL-XL levels were measured in peripheral leukocytes by western blotting. Results Twenty patients were enrolled, with a median age of 60.5 year; 60% were female. Only one dose-limiting toxicity was observed, grade 4 thrombocytopenia that resolved within 48 h. Stable disease, observed in 20% of the patients. The lowest platelet count in the first cycle ranged from 24,000 to 297,000. In all cases, the platelet count recovered to > 50,000 within 4 days and > 75,000 within 1 week. […] The median overall survival was 7.9 months. […] Conclusions Based on the rapid recovery of transient thrombocytopenia that occurred only in the first cycle and the degradation of BCL-XL in peripheral leukocytes, the RP2D of DT2216 is 0.4 mg/kg IV BIW. (NCT04886622)
Premedication prior to each infusion was at the discretion of the investigator or according to institutional guidelines. Patient assessment and follow-up procedures can be found in the schedule of assessments in this study. The clinical response was evaluated using RECIST v1.1 per protocol. […]

OVCAR4 cells (OC) = assay: In vitro IC90, OVCAR4 cells; type: cell-based; settings: Homo sapiens, OVCAR-4, DT2216 alone
Method: Fig. 7 Mean Plasma concentration of DT2216 in 4 patients infused with DT2216 at 0.4 mg/kg over time against in vitro inhibitory concentration 90%(IC90) for various cell lines. SCLC – small cell lung cancer; OC- ovarian carcinoma; T-ALL – T cell acute lymphoblastic leukemia, CTCL – Cutaneous T cell lymphoma TEXT PRINTED IN THE PICTURE: DT2216: IC90 (≈ 1000 nM) for H146 cells (SCLC); IC90 (< 1000 nM) for OVCAR4 cells (OC); IC90 (≈ 500 nM) for MOLT-4 cells (T-ALL); IC90 (< 100 nM) for OVCAR4 cells (OC)* (*In combination with Carboplatin); IC90 (≈ 100 nM) for H146 cells (SCLC)** (**In combination with SN-38/irinotecan); IC90 (30 nM) for Myla cells (CTCL)

[2] = Safety and tolerability in patients (adverse events CTCAE v5.0, DLT, platelet count, RP2D); type: in vivo, human
Method: Dose escalation consisted of the administration of DT2216 intravenously twice weekly at several different doses outlined in protocol attached. The starting dose was 0.04 mg/kg, established based on pre-clinical toxicity studies. Safety was evaluated using CTCAE version 5.0. The initial three dose levels enrolled one patient, following which for dose level 4 and 5, a 3 + 3 design was utilized following a 100% incremental dose increase for dose levels 2 to 5 until the first dose limiting toxicity (DLT) in cycle 1 was observed. Thereafter, a modified Fibonacci sequence was used to define dose escalation increments until the maximum tolerated dose (MTD) was reached as described in protocol. If no dose-limiting toxicity (DLT) was observed during the DLT monitoring period of first 28 days, the next patient was enrolled at the next higher dose level. Dose-limiting toxicities (DLTs) during the first treatment cycle were defined as any Grade 5 toxicity; Grade 4 neutropenia lasting > 7 days; febrile neutropenia; Grade 4 thrombocytopenia or Grade 3 thrombocytopenia with clinically significant hemorrhage or lasting ≥ 7 days; and Grade ≥ 3 non-hematologic toxicities, excluding nausea, vomiting, or diarrhea lasting ≤ 3 days or transient laboratory abnormalities resolving within 72 h. Hepatotoxicity meeting Hy’s law criteria was also considered a DLT. Transient Grade 3–4 electrolyte abnormalities resolving to ≤ Grade 2 within 72 h were not considered DLTs.
Patients were allowed a maximum of two intra-patient dose escalations. Patients received DT2216 by intravenous infusion on days 1 and 4 weekly for at least 4 weeks, with each cycle consisting of a 28-day cycle for a maximum duration of 1 year until disease progression, unacceptable toxicity, or other withdrawal criteria, as listed in the protocol. The extent of disease was evaluated using imaging studies and disease-appropriate tumor markers every 8 weeks from day 1 of the first cycle. RP2D was established based on MTD as well as other relevant data, including clinical signals of activity, PK, and PD data.
(§1) Premedication prior to each infusion was at the discretion of the investigator or according to institutional guidelines. Patient assessment and follow-up procedures can be found in the schedule of assessments in this study. The clinical response was evaluated using RECIST v1.1 per protocol. Blood samples were collected for PK analysis before and after post-infusion at defined intervals, along with platelet counts. Exploratory biomarkers include (but are not limited to) the assessment of BCL-XL and VHL levels in peripheral white blood cells (WBC).

VHL = molecular target: T2, VHL (Homo sapiens, UniProt P40337); assay: VHL expression in peripheral white blood cells of patients; type: in vivo; settings: 0.4 mg/kg IV, 4 patients, after C1D1
T2 construct: assessment of BCL-XL and VHL levels in peripheral white blood cells (WBC); endogenous in cells; host or cells: peripheral white blood cells of trial patients
T2 sequence (P40337 whole entry): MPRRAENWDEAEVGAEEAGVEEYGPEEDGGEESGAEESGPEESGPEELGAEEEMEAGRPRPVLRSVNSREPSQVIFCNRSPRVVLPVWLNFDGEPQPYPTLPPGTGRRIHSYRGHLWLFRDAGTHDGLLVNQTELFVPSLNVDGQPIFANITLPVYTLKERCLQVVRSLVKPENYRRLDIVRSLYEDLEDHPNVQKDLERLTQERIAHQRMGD
Method: as §1
Fig. 6 Changes in BCL-XL and VHL expression after infusion of DT2216 at 0.4 mg/kg in 4 patients. […] Right panel depicts fold changes in VHL expression in the same patients after infusion of DT2216.

BCL-XL [3] = molecular target: T1, BCL-XL; assay: BCL-XL levels in WBCs from a normal human donor after incubation with DT2216; type: cell-based; settings: increasing concentrations, approximately 16 hours incubation, beta actin control
Method: Fig. 5 Levels of BCL-XL in WBCs from a normal human donor. They were determined after incubation with increasing concentrations of DT2216 as depicted in the figure for approximately 16 hours. […] BCL-XL expression after incubation with DT2216 in comparison to beta actin which acts as control in the figure

[4] = number of subjects, 20 patients, all dose cohorts
[5] = related TEAE, 20 patients, all dose cohorts

SMILES: Cc1ncsc1-c1ccc([C@H](C)NC(=O)[C@@H]2C[C@@H](O)CN2C(=O)[C@@H](NC(=O)CCCCCC(=O)N2CCN(CC[C@H](CSc3ccccc3)Nc3ccc(S(=O)(=O)NC(=O)c4ccc(N5CCN(CC6=C(c7ccc(Cl)cc7)CCC(C)(C)C6)CC5)cc4)cc3S(=O)(=O)C(F)(F)F)CC2)C(C)(C)C)cc1 [DT2216]
- BCL-XL expression in peripheral leukocytes (BCL-XL [1]): rapid and sustained degradation of BCL-XL; also recorded: decreases rapidly after infusion of DT2216 and is persistent
- IC90 (OVCAR4 cells (OC)): < 1000 nM
- fatigue, related TEAE ([2]; 2 patients of 20): 10%
- infusion-related reaction, related TEAE ([2]; 2 patients of 20): 10%
- thrombocytopenia, related TEAE ([2]; 9 patients of 20): 45%
- bleeding events and treatment related deaths ([2]; 20 patients): no episodes of bleeding or treatment emergent adverse events leading to death; also recorded: no major bleeding events or treatment related deaths
- Treatment discontinuation: Adverse event (subjects) ([2]; Cohort 1 (0.04 mg/kg), 1 treated): 0
- Treatment discontinuation: Adverse event (subjects) ([2]; Cohort 2 (0.08 mg/kg), 1 treated): 0
- Treatment discontinuation: Adverse event (subjects) ([2]; Cohort 3 (0.12 mg/kg), 1 treated): 0
- Treatment discontinuation: Adverse event (subjects) ([2]; Cohort 4 (0.24 mg/kg), 7 treated): 0
- Treatment discontinuation: Adverse event (subjects) ([2]; Cohort 5 (0.32 mg/kg), 6 treated): 0
- Treatment discontinuation: Adverse event (subjects) ([2]; Cohort 6 (0.40 mg/kg), 4 treated): 0
- patients with at least one related treatment-emergent adverse event (TEAE) ([2]; Sixteen of 20 patients): 80%
- Treatment discontinuation: Adverse event (subjects) ([2]; Total, 20 treated): 0
- time to platelet count recovery to > 50,000 ([2]; all cases): ≤ 4 days
- time to platelet count recovery to > 75,000 ([2]; all cases): ≤ 1 week
- number of dose-limiting toxicities (grade 4 thrombocytopenia) ([2]; dose escalation 0.04 to 0.4 mg/kg IV BIW, DLT at 0.32 mg/kg): one
- lowest platelet count observed during the study ([2]; human, in vivo): 24,000 /µL
- median duration of dose interruption due to thrombocytopenia ([2]; human, in vivo): 5 days
- time to resolution of the grade 4 thrombocytopenia DLT ([2]; human, in vivo): ≤ 48 h
- Alanine aminotransferase increased, Grade > 3 [2, 4]: 0
- Blood bilirubin increased, Grade > 3 [2, 4]: 0
- Contusion, Grade > 3 [2, 4]: 0
- Decreased appetite, Grade > 3 [2, 4]: 0
- Fatigue, Grade > 3 [2, 4]: 0
- Hematuria, Grade > 3 [2, 4]: 0
- Infusion related reaction, Grade > 3 [2, 4]: 0
- Lipase increased, Grade > 3 [2, 4]: 0
- Temperature intolerance, Grade > 3 [2, 4]: 0
- Thrombocytopenia, Grade > 3 [2, 4]: 1
- patients with dose interruption due to thrombocytopenia ([2]; of 20 patients): 8 patients
- patients with dose reduction due to thrombocytopenia ([2]; of 20 patients): 2 patients and 1 patients
- need for platelet transfusions ([2]; patients with thrombocytopenia): none of the patients required platelet transfusions
- Alanine aminotransferase increased, Number of subjects (%) [2, 5]: 1 (5) subjects (%)
- Blood bilirubin increased, Number of subjects (%) [2, 5]: 1 (5) subjects (%)
- Contusion, Number of subjects (%) [2, 5]: 1 (5) subjects (%)
- Decreased appetite, Number of subjects (%) [2, 5]: 1 (5) subjects (%)
- Fatigue, Number of subjects (%) [2, 5]: 2 (10) subjects (%)
- Hematuria, Number of subjects (%) [2, 5]: 1 (5) subjects (%)
- Infusion related reaction, Number of subjects (%) [2, 5]: 2 (10) subjects (%)
- Lipase increased, Number of subjects (%) [2, 5]: 1 (5) subjects (%)
- Temperature intolerance, Number of subjects (%) [2, 5]: 1 (5) subjects (%)
- Thrombocytopenia, Number of subjects (%) [2, 5]: 9 (45) subjects (%)
- VHL expression in peripheral WBCs (VHL): did not demonstrate a simultaneous drop
- BCL-XL levels in normal human donor WBCs (BCL-XL [3]): capable of completely degrading BCL-XL; also recorded: dose dependent degradation
